Measurements taken from patent US9573972B2, “Nurotoxic sterol glycosides” (priority 2008, dated 2017).
Marks after values point to notes of the source that are not given here.

Columns and labels:
[1] = test system: choline acetyl transferase (ChAT) immunoreactive cells; experiment: Anti-ChAT immunofluorescence, cholinergic neuron counts; format: in vivo, mouse; conditions: for Fewer cholinergic neurons than control: SG-fed; for Cholinergic neurons, change: ventral horn lumbar spinal cord, SG-fed vs control
Experimental: Tissue-mounted slides were processed for fluorescence microscopy as follows: Sections were rinsed in coplin jars for 45 minutes at room temperature (RT) in three changes of PBS. Sections were then incubated at RT for 30 minutes in a blocking permeabilization solution made of 5% normal goat serum (NGS), 5% normal rabbit serum (NRS) or 5% BlokHen II (Ayes Labs, Inc., Tigard, Oreg.), 0.05% Triton X-100 and PBS. Subsequently, the blocking solution was tipped off and the slides were rinsed in PBS for 2 minutes. Sections were then incubated overnight in a humidified chamber at 4° C. with a PBS buffered solution that contained 1% NGS or 1% NRS, 1% bovine serum albumin (BSA) and one of the following primary antibodies: (a) rabbit anti-human/mouse ATF-3 (H-90) IgG (polyclonal, 1:500; Santa Cruz Biotechnology, Inc., Santa Cruz, Calif.), (b) anti-activated caspase-3 IgG (monoclonal, 1:250; Chemicon International, Temecula, Calif.) (see FIG. 9), (c) goat antihuman/mouse choline acetyl transferase (ChAT) IgG (polyclonal, 1:100; Chemicon International, Temecula, Calif.) (see FIG. 6), (d) rabbit anti-mouse glial fibrillary acidic protein IgG (polyclonal, 1:250; GeneTex Inc., San Antonio, Tex.) (see FIG. 7), (e) rabbit antihuman/mouse ionized calcium binding adaptor molecule 1 (IBA-1) IgG (polyclonal, 1:500; Wako Pure Chemical Industries, Ltd, Richmond, Va.), (f) mouse anti-human/mouse clone AT8 PHF-1 Tau (monoclonal, 1:200; Pierce Biotechnology Inc., Rockford, Ill.), (g) rabbit anti-human/mouse TAR DNA-binding protein 43 (TDP43) (1:100; ProteinTech Group Inc., Chicago, Ill.) (See FIG. 14), (h) chicken anti-human/mouse β-tubulin 3 (TuJ1 antigen) (polyclonal, 1:100, Ayes Labs, Inc., Tigard, Oreg.), (i) rabbit anti-mouse tyrosine hydroxylase (polyclonal, 1:500, Chemicon International, Temecula, Calif. or polyclonal 1:1000, Affinity BioReagents, Golden, Colo.) (FIG. 10), (j) rabbit anti human/mouse anti-pJunscr73 IgG (polyclonal, 1:200; Chemicon International, Temecula, Calif.), (k) rabbit anti human/mouse anti-HSP-70 IgG (polyclonal, 1:200; Chemicon International, Temecula, Calif.), or (1) rabbit anti human/mouse anti-HSP-25 IgG (polyclonal, 1:100; Chemicon International, Temecula, Calif.). In each experiment, additional slides were incubated with the primary antibody and the secondary antibody omitted or with secondary antibody and primary antibody omitted to test for nonspecific staining. Where appropriate, positive control slides (Alzheimer's disease patient entorhinal cortex, obtained from Drs. Claudia Schwab and Patrick McGeer of the Kinsmen Laboratory, University of British Columbia, Vancouver, BC, Canada) were also processed as above for comparison. […]

Phosphorylated Junser73 = experiment: Anti-pJun immunofluorescence; format: in vivo, mouse
Experimental: Tissue-mounted slides were processed for fluorescence microscopy as follows: Sections were rinsed in coplin jars for 45 minutes at room temperature (RT) in three changes of PBS. Sections were then incubated at RT for 30 minutes in a blocking permeabilization solution made of 5% normal goat serum (NGS), 5% normal rabbit serum (NRS) or 5% BlokHen II (Ayes Labs, Inc., Tigard, Oreg.), 0.05% Triton X-100 and PBS. Subsequently, the blocking solution was tipped off and the slides were rinsed in PBS for 2 minutes. […]

CC[C@H](/C=C/[C@@H](C)[C@H]1CC[C@H]2[C@@H]3CC=C4C[C@@H](O[C@@H]5O[C@H](CO)[C@@H](O)[C@H](O)[C@H]5O)CC[C@]4(C)[C@H]3CC[C@]12C)C(C)C [SG, Stigmasterol β-D-Glucopyranoside]
Fewer cholinergic neurons than control ([1]; 35 weeks): 18%
Fewer cholinergic neurons than control ([1]; 52 weeks): 32%
Cholinergic neurons, change ([1]; Time-point 1 (35 wk)): Cholinergic neurons (−18%)
Cholinergic neurons, change ([1]; Time-point 2 (52 wk)): Cholinergic neurons (−32%)
Anti-pJun immunoreactive cells over time (Phosphorylated Junser73; SG-fed group over time (35 to 52 wk)): Anti-pJun immunoreactive cells (SG-fed group over time) (ns)
Anti-pJun, change (Phosphorylated Junser73; SG-fed vs control, Time-point 1 (35 wk)): Anti-pJun: +199%*
Anti-pJun (Phosphorylated Junser73; SG-fed vs control, Time-point 2 (52 wk)): Anti-pJun (ns)
